Measurements as given in patent CN109776561A, “化合物cytorhizins B和C及其制备方法和在制备抗肿瘤药物中的应用” (Institute of Microbiology of Guangdong Academy of Sciences, priority 2019, dated 2019).

Tests used:
Type in all cases: cell-based
[1] = tested on: SF-268 nerve cancer cells (神经癌细胞SF-268); experiment: SRB cytotoxicity assay, SF-268; settings: SF-268, SRB, 72 h
[2] = tested on: HepG-2 liver cancer cells (肝癌细胞HepG-2); experiment: SRB cytotoxicity assay, HepG-2; settings: HepG-2, SRB, 72 h
[3] = tested on: MCF-7 breast cancer cells (乳腺癌细胞MCF-7); experiment: SRB cytotoxicity assay, MCF-7; settings: MCF-7, SRB, 72 h
[4] = tested on: NCI-H460 cells (NCI-H460细胞); experiment: SRB cytotoxicity assay, NCI-H460; settings: 72 h

| Compound | IC50 [1] | IC50 [2] | IC50 [3] | IC50 [4] |
| --- | --- | --- | --- | --- |
| Cc1cc(O)c2c3c1OC(C)(C)[C@@H](CCl)O[C@]31Oc3cccc(O)c3[C@@]2(O)[C@H]1C [cytorhizin B] | 34.8 µM | 29.4 µM | 30.1 µM | 32.8 µM |
| COC[C@H]1O[C@]23Oc4cccc(O)c4[C@](O)(c4c(O)cc(C)c(c42)OC1(C)C)[C@H]3C [cytorhizin C] | 36.8 µM | 68.6 µM | 58.6 µM | 54.7 µM |
| N.N.[Cl][Pt][Cl] [顺铂, reference compound] | 3.3 µM | 2.4 µM | 3.2 µM | 1.6 µM |
